Reference: patent US8658672B2, “HIF-1α activating agent” (University of Seoul Foundation of Industrial and Academic …, priority 2006, dated 2014)

Columns and labels:
Type in all cases: cell-based, human
GAL4-HIF-1α = test: HIF-1α transactivation, Gal4-driven reporter gene assay in HepG2 cells; settings: TPEN 5 μM, 16 hours
Protocol: Human HepG2 hepatoma cells were cultured at the concentration of 5×10^4, which were transfected with 100 ng of Gal-4-driven reporter plasmid encoding the firefly luciferase gene under the control of the Gal4 binding site together with pGal4/HIF-1α plasmid which expresses HIF-1α linked to the DNA binding domain of the yeast Gal4 protein (amino acids 1-147). The transfected human HepG2 hepatoma cells were incubated in both normoxic and hypoxic conditions and then treated with CQ (10, 50 μM) for 16 hours in normoxic condition. 48 hours after the transfection, luciferase activities were analyzed using the reporter gene assay system (Promega, USA) and normalized by β-galactosidase activities.

HIF-1α = test: Effects of CQ and TPEN on HIF-1α stabilization in SH-SY5Y cells (Western blotting)
Protocol: Human SH-SY5Y neuroblastoma cells (ATCC CRL-2266) were cultured under normoxic condition and hypoxic condition, respectively. SH-SY5Y cells were cultured in MEM (Invitrogen, USA) containing non-essential amino acids and supplemented with 10% FBS (fetal bovine serum: Biowhittaker, USA). The cells were made hypoxic by incubation in anaerobic incubator (Model 1029, Form a Scientific Inc) at 37° C. with 5% CO2, 10% H2 and 85% N2. The cells were treated with drugs one hour before hypoxic treatment. To separate RNAs, the cells were incubated for 16 hours under hypoxic condition and to separate proteins the cells were cultured for 6 hours under hypoxic condition. […] HIF-1α expression was investigated by Western blotting. Samples from each group proceeded to 8% SDS-PAGE for electrophoresis and were then transferred onto nitrocellulose membrane (Sigma, USA). Anti-human HIF-1α antibody (BD, Pharmingen, USA) (1:800) was used as a primary antibody and mouse-Ig conjugated horseradish:peroxidase (1:3,000) was used as a secondary antibody. Anti-β tubulin antibody (BD, Pharmingen, USA) was used as a control.

[1] = test system: HRE (hypoxia-response element); test: HRE dependent gene expression in HepG2 hepatoma cells (luciferase reporter gene assay); settings: p(HRE)4-luc, TPEN 5, 10 μM, CQ 10, 50 μM, 16 hours
Protocol: Human HepG2 hepatoma cells were grown to the density of 5×10^4 and then transfected with 100 ng of HRE-driven reporter plasmid, p(HRE)4-luc together with plasmid pCHO110 which encodes β-galactosidase. The transfected human HepG2 hepatoma cells were cultured under normoxic condition and hypoxic condition and then treated with TPEN (5, 10 μM) and CQ (10, 50 μM) for 16 hours each. 48 hours after the transfection, luciferase activities were analyzed using the reporter gene assay system (Promega, USA) and normalized by β-galactosidase activities.

VEGF = test: Effects of CQ and TPEN on the expression of VEGF, a HIF-1α target gene (RT-PCR); settings: TPEN 5 μM
From the text: ID. […] ID. NO: 2 (5′-[…]-3′). […] ID. […] ID. NO: 4 (5′-[…]-3′).

HIF-1α and CBP = test: Co-immunoprecipitation of HIF-1α with CBP in HepG2 cells; settings: normoxic, CQ 100 μM, MG132 5 μM 6 hours
Protocol: Total cell extract was prepared by the method of Jaakkola, et al (Jaakkola et al., Science 292:468-472, 2001). For immunoprecipitation, 200 μg of samples of whole cell lysates were reacted with 1 μg of anti-mouse IgG (Santa Cruz Biotechnology, USA) and 10 μl of 0.5% ImmunoPure immobilized protein A/G gel (Pierce, USA) for 30 minutes at 4° C. After removing protein A/G gel, the cleared extracts were mixed with 1 μg of anti-CBP antibody (Santa Cruz Biotechnology, USA). After addition of 15 μl of 0.5% ImmunoPure immobilized protein A/G gel, they were left at 4° C. for 16 hours. The immunoprecipitates were pelleted, washed four times with PBS and resuspended in SDS sample buffer. Samples were then boiled for 5 minutes and run on 8% SDS-polyacrylamide gels, and the proteins were transferred to nitrocellulose membranes by semi-dry transfer (Trans-Blot SD, Bio-Red, Hercules, USA). Co-immunoprecipitated proteins were reacted with anti-human HIF-1α antibody (BD, Pharmingen, USA) and/or anti-CBP antibody and visualized by enhanced chemiluminescence, according to the manufacturer's instruction (Amersham, USA), with anti-mouse or anti-rabbit Ig conjugated with horseradish peroxidase (HRP) as a secondary antibody.

Compound: c1ccc(CN(CCN(Cc2ccccn2)Cc2ccccn2)Cc2ccccn2)nc1 [TPEN, tetrakis-(2-pyridylmethyl)ethanediamine]
- transactivation activity of HIF-1α (GAL4-HIF-1α; hypoxic condition): increased HIF-1α activity
- transactivation activity of HIF-1α (GAL4-HIF-1α; normoxic condition, CQ 10, 50 μM): not in normoxic condition
- level of HIF-1α protein (HIF-1α; normoxic, 6 hours, TPEN 5 μM, CQ 10, 100 μM): increased the level of HIF-1α protein
- HIF-1α accumulation (HIF-1α; oxygen condition not printed in the sentence (control also accumulated)): induced HIF-1α accumulation
- HIF-1α dependent hypoxia-response element (HRE) activity [1]: but not TPEN induced HIF-1α dependent hypoxia-response element (HRE) activity
- VEGF expression (VEGF; HepG2 cells, normoxic, CQ 10, 100 μM): differed in their effects on VEGF expression
- VEGF expression (VEGF; SH-SY5Y cells, normoxic condition, CQ 10, 100 μM): reduced VEGF expression
- VEGF expression (VEGF; hypoxic condition, 16 hours, CQ 100 μM, SH-SY5Y and HepG2 cells): none of the control, TPEN and CQ increased VEGF expression
- interaction of HIF-1α with CBP in cells (HIF-1α and CBP): inhibited the interaction between HIF-1α and CBP
